Results as given in BindingDB's records for doi:10.1021/cb300426u (University of St. Andrews, 2013).

Target: Glucose-1-phosphate thymidylyltransferase (Pseudomonas aeruginosa (strain ATCC 15692 / DSM 22644 / CIP 104116 / JCM 14847 / LMG 12228 / 1C / PRS 101 / PAO1), UniProt Q9HU22)
Experiment: Inhibition Assay
Excerpt: Inhibition assay using glucose-1-phosphate thymidylyltransferase (RmlA).

Glucose-1-phosphate thymidylyltransferase, sequence (Q9HU22 whole entry): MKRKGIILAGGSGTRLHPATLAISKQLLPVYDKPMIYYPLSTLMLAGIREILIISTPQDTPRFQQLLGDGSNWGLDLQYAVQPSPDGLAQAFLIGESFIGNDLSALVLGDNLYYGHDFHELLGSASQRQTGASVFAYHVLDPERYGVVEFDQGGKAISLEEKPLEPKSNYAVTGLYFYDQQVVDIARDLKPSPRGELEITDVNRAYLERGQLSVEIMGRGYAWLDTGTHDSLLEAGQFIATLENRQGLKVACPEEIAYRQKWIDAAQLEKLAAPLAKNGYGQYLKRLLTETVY

`CNc1c(N)n(Cc2ccccc2)c(=O)[nH]c1=O` [6-azanyl-5-(methylamino)-1-(phenylmethyl)pyrimidine-2,4-dione] was tested. Which IC50 did it give?
The IC50 was over 60000 nM.

With `CCCCn1c(N)c(N(C)S(=O)(=O)c2ccccc2)c(=O)[nH]c1=O` [Analogue of 1a, 1] as the compound, how does the IC50 read?
Its IC50 is 210 nM.

How did the IC50 turn out when `Nc1c(O)n(Cc2ccccc2)c(=O)[nH]c1=O` [Analogue of 1a, 2] was run?
Its IC50 is 1140 nM.

With `CCCCn1c(N)c(N(C)C(=O)c2ccco2)c(=O)[nH]c1=O` [Analogue of 1a, 5] as the compound, how does the IC50 read?
The IC50 was 5900 nM.

Which IC50 does the source give for `CN(c1c(N)n(Cc2ccccc2)c(=O)[nH]c1=O)S(=O)(=O)c1ccccc1` [Analogue of 1a, 8a] here?
Its IC50 is 73 nM.

For `CCN(c1c(N)n(Cc2ccccc2)c(=O)[nH]c1=O)S(=O)(=O)c1ccccc1` [Analogue of 1a, 8b], which IC50 is on record?
Its IC50 is 102 nM.

`CCCN(c1c(N)n(Cc2ccccc2)c(=O)[nH]c1=O)S(=O)(=O)c1ccccc1` [Analogue of 1a, 8c] was tested. Which IC50 did it give?
Its IC50 is over 10000 nM.

Which IC50 does the source give for `CN(C(=O)c1ccccc1)c1c(N)n(Cc2ccccc2)c(=O)[nH]c1=O` [Analogue of 1a, 8f] here?
Its IC50 is over 60000 nM.

For `CN(c1c(N)n(Cc2ccccc2)c(=O)[nH]c1=O)S(=O)(=O)c1ccco1` [Analogue of 1a, 8t], which IC50 is on record?
Its IC50 is 105 nM.

For `Nc1c(NS(=O)(=O)c2ccccc2)c(=O)[nH]c(=O)n1Cc1ccccc1` [Analogue of 1a, 15a], which IC50 is on record?
The IC50 was 1320 nM.
